Data from EP0233841A1, “Quinone derivatives and process for their preparation” (Arai, Tadashi, Prof., priority 1986, dated 1987).
≈ marks a conversion by molar mass, not a printed value.

test system: Leukämie-Zellinie L1210; test: in vitro cytotoxicity test, growth inhibition of cultured leukaemia cell line L1210; format: cell-based, Mäuse; conditions: Mus musculus, 72 h; L1210 cells, 3-day incubation, cell count, by interpolation; read-out: ID₅₀ (50 % Hemmwirkdosis)
Procedure: Die Saframycin-Derivate der vorliegenden Erfindungen zeigen insbesondere in vitro Zytotoxizität gegenüber Zellkulturen von Mäuse-Leukämie-Zellen L 1210 (NCI). Für die geprüften Verbindungen werden ID₅₀-Werte im Bereich von 0,1 bis 0,001 µg/ml gefunden.
Die Wirksamkeit gegen Tumoren in vitro wird mit einer kultivierten Leukämie-Zellinie L1210 (K. Kishi et al., J. Antibiot. 37, 847 (1984)) bestimmt. Die Zellen werden in Eagle's minimum essential medium (Nissui Seiyaku Co. Ltd., Tokyo) enthaltend 10 % fötales Kälberserum (Gibco Laboratories) in Suspension-Kultur gehalten. Die Zellen werden bei einer Konzentration von 3x10⁴ Zellen/ml in 24-Loch-Mikrotiterplatten (Costar) suspendiert und bei 37° in einer feuchten Atmosphäre enthaltend 5 % CO₂ in Luft 24 Stunden lang kultiviert, um exponentielles Wachstum auszulösen. Diese Kulturen werden mit einer Reihe von jeweils um den Faktor 10 verdünnten Proben Saframycin-Derivaten dieser Erfindung versetzt. Die Konzentration der Zellen wird nach 3-tägiger Inkubation durch elektrische Zählung mit einem Sysmex CC-130 Mikro-Zellzählgerät (Toa Electronics Ltd., Tokyo) bestimmt. Die Wachstumshemmung (Inhibierung I) in Prozent wird für jede Dosismenge nach der Formel I=(C3-T3)/(C3-C0)x100, worin T3 die Zellkonzentration in den Vertiefungen der Mikrotiterplatte bei einer gegebenen Verdünnung des Wirkstoffs nach 3-tägiger Inkubation, C3 die Zellkonzentration in der entsprechenden Kontroll-Inkubation und C0 die Zellkonzentration in den Vertiefungen vor der 3-tägigen Inkubation bedeuten, berechnet. ID₅₀ (50 % Hemmwirkdosis) wird durch Interpolierung bestimmt.

Q: Which IC50 does the source give for `CCCCN(CCCC)[C@@H](C)C(=O)NCC1C2=C(CC3C4C5=C(CC(C(C#N)N13)N4C)C(=O)C(C)=C(OC)C5=O)C(=O)C(C)=C(OC)C2=O` (stereo partly drawn) [N,N-Dibutyl-Saframycin Y₃, N,N-Di-n-butyl-Saframycin Y₃] here?
A: 0.08 µg/mL (≈ 0.118 µM)

Q: `CCCN(CCC)[C@@H](C)C(=O)NCC1C2=C(CC3C4C5=C(CC(C(C#N)N13)N4C)C(=O)C(C)=C(OC)C5=O)C(=O)C(C)=C(OC)C2=O` (stereo partly drawn) [N,N-Dipropyl-Saframycin Y₃, N,N-Di-n-propyl-Saframycin Y₃] was tested. Which IC50 did it give?
A: 0.0015 µg/mL (≈ 0.00232 µM)

Q: Which IC50 does the source give for `CCN(CC)[C@@H](C)C(=O)NCC1C2=C(CC3C4C5=C(CC(C(C#N)N13)N4C)C(=O)C(C)=C(OC)C5=O)C(=O)C(C)=C(OC)C2=O` (stereo partly drawn) [N,N-Diäthyl-Saframycin Y₃] here?
A: 0.0035 µg/mL (≈ 0.00565 µM)

Q: With `COC1=C(C)C(=O)C2=C(C1=O)C1C3CC4=C(C(=O)C(OC)=C(C)C4=O)C(CNC(=O)[C@H](C)NC(C)C)N3C(C#N)C(C2)N1C` (stereo partly drawn) [N-Isopropyl-Saframycin Y₃] as the molecule, how does the IC50 read?
A: 0.0018 µg/mL (≈ 0.00297 µM)

Q: For `COC1=C(C)C(=O)C2=C(C1=O)C1C3CC4=C(C(=O)C(OC)=C(C)C4=O)C(CNC(=O)[C@H](C)NC(=O)Nc4ccccc4)N3C(C#N)C(C2)N1C` (stereo partly drawn) [N-Phenylcarbamoyl-Saframycin Y₃], which IC50 is on record?
A: 0.04 µg/mL (≈ 0.0586 µM)

Q: Which IC50 does the source give for `COC1=C(C)C(=O)C2=C(C1=O)C1C3CC4=C(C(=O)C(OC)=C(C)C4=O)C(CNC(=O)[C@H](C)NC(=S)Nc4ccccc4)N3C(C#N)C(C2)N1C` (stereo partly drawn) [N-Phenylthiocarbamoyl-Saframycin Y₃] here?
A: 0.1 µg/mL (≈ 0.143 µM)

Q: With `COC1=C(C)C(=O)C2=C(C1=O)C1C3CC4=C(C(=O)C(OC)=C(C)C4=O)C(CNC(=O)[C@H](C)NC(=O)C(C)(C)C)N3C(C#N)C(C2)N1C` (stereo partly drawn) [N-Pivaloyl-Saframycin Y₃] as the molecule, how does the IC50 read?
A: 0.01 µg/mL (≈ 0.0154 µM)

Q: With `CCC(=O)N[C@@H](C)C(=O)NCC1C2=C(CC3C4C5=C(CC(C(C#N)N13)N4C)C(=O)C(C)=C(OC)C5=O)C(=O)C(C)=C(OC)C2=O` (stereo partly drawn) [N-Propionyl-Saframycin Y₃] as the molecule, how does the IC50 read?
A: 0.02 µg/mL (≈ 0.0323 µM)

Q: For `CCCCCCCCCC(=O)N[C@@H](C)C(=O)NCC1C2=C(CC3C4C5=C(CC(C(C#N)N13)N4C)C(=O)C(C)=C(OC)C5=O)C(=O)C(C)=C(OC)C2=O` (stereo partly drawn) [N-n-Decanoyl-Saframycin Y₃], which IC50 is on record?
A: 0.11 µg/mL (≈ 0.153 µM)

Q: How did the IC50 turn out when `CCCCCCCCCCCCCCCC(=O)N[C@@H](C)C(=O)NCC1C2=C(CC3C4C5=C(CC(C(C#N)N13)N4C)C(=O)C(C)=C(OC)C5=O)C(=O)C(C)=C(OC)C2=O` (stereo partly drawn) [N-n-Hexadecanoyl-Saframycin Y₃] was run?
A: 0.03 µg/mL (≈ 0.0374 µM)

Q: With `CCCCCC(=O)N[C@@H](C)C(=O)NCC1C2=C(CC3C4C5=C(CC(C(C#N)N13)N4C)C(=O)C(C)=C(OC)C5=O)C(=O)C(C)=C(OC)C2=O` (stereo partly drawn) [N-n-Hexanoyl-Saframycin Y₃] as the molecule, how does the IC50 read?
A: 0.0075 µg/mL (≈ 0.0113 µM)

Q: With `CCCCCCCC(=O)N[C@@H](C)C(=O)NCC1C2=C(CC3C4C5=C(CC(C(C#N)N13)N4C)C(=O)C(C)=C(OC)C5=O)C(=O)C(C)=C(OC)C2=O` (stereo partly drawn) [N-n-Octanoyl-Saframycin Y₃] as the molecule, how does the IC50 read?
A: 0.11 µg/mL (≈ 0.159 µM)

Q: For `COC1=C(C)C(=O)C2=C(C1=O)C1C3CC4=C(C(=O)C(OC)=C(C)C4=O)C(CNC(=O)[C@H](C)NC(=O)c4ccc(Br)cc4)N3C(C#N)C(C2)N1C` (stereo partly drawn) [N-p-Brombenzyol-Saframycin Y₃, N-p-Brombenzoyl-Saframycin Y₃], which IC50 is on record?
A: 0.01 µg/mL (≈ 0.0134 µM)

Q: `COC1=C(C)C(=O)C2=C(C1=O)C1C3CC4=C(C(=O)C(OC)=C(C)C4=O)C(CNC(=O)[C@H](C)NCc4ccc([N+](=O)[O-])cc4)N3C(C#N)C(C2)N1C` (stereo partly drawn) [N-p-Nitrobenzyl-Saframycin Y₃] was tested. Which IC50 did it give?
A: 0.0015 µg/mL (≈ 0.00215 µM)

Q: Which IC50 does the source give for `COC1=C(C)C(=O)C2=C(C1=O)C1C3CC4=C(C(=O)C(OC)=C(C)C4=O)C(CNC(=O)[C@H](C)NC(=O)Nc4cccc5ccccc45)N3C(C#N)C(C2)N1C` (stereo partly drawn) [N-α-Naphthylcarbamoyl-Saframycin Y₃] here?
A: 0.08 µg/mL (≈ 0.109 µM)
